How the values were obtained:
[1] = system: immunoglobulins (IgG, IgE, IgM and IgA) present in human serum; test: Separation and purification of immunoglobulins from raw human serum by affinity chromatography on the resin-immobilized compound (gel electrophoresis and Western blotting of fractions); assay type: binding; conditions: compound immobilized on Ultralink Biosupport Medium
Method: (§1) Compound IB (5 mg) prepared according to the preceding Example 1 was dissolved in 5.0 ml of 0.2 M NaHCO3, 0.6 M Na citrate, pH 9.0, and incubated with 130 mg (1 mL) of resin Ultralink Biosupport Medium™ (PIERCE, Rockford, IL, USA), a support for affinity chromatography pre-activated with a function of the azalactone type for direct coupling of peptides and proteins. The suspension was stirred for 12 hours at room temperature and the extent of coupling was monitored by taking samples of the reaction mixture at various times and then analysing by RP-HPLC.
(§2) After 12 hours, approx. 90-95% of the initial peptide had been immobilized covalently on the resin. The derivatized resin was incubated with 0.1 M TRIS, pH 8.5 to block any sites of the resin that are still reactive, and then packed in a glass column 100 x 0.6 mm ID with variable plunger (OMNIFIT™, Cat. No. 006CC-06-10-FF).
(§3) To evaluate the capability of Compound I(B) immobilized on resin according to Example 2 to separate and purify immunoglobulins, the column was equilibrated with buffer 25 mM Bis-Tris (Bis(2-hydroxyethyl)amino-tris(hydroxymethyl)methane, Sigma-Aldrich™, Cat. No. B7535), pH 6.5, at a flow rate of 1 mL/min, monitoring the eluent at 280 nm.
Raw human serum (Sigma-Aldrich™, Cat. No. R9133) was filtered, diluted 1:1 (v/v) with the binding buffer, loaded on the column and, after elution of the unbound material, the eluent was changed to acetic acid (AcH, Sigma-Aldrich™, Cat. No. 46928) 0.1 M, pH 3.0, for eluting the adsorbed material.
The material eluted from the column was neutralized with TRIS 1 M, pH 9.0 and characterized by analysis by polyacrylamide gel electrophoresis and Western blotting (WB) on nitrocellulose for identifying the immunoglobulins retained.

[2] = system: IgG, IgE, IgM and IgA immunoglobulins; test: Separation and purification of immunoglobulins from raw murine serum by affinity chromatography on the resin-immobilized compound; assay type: binding; conditions: compound immobilized on Ultralink Biosupport Medium
Method: as §1, §2
as §3, with “nm. […]” for “nm.”

With “(NH2-L-Cys-L-Tyr-L-His-L-His)2-L-Lys-L-Gly-OH [Compound I(B)]” the “retention of the immunoglobulin fraction of the raw serum (electrophoretic analysis)” value ([1]; raw human serum diluted 1:1, binding buffer 25 mM Bis-Tris pH 6.5, elution with acetic acid 0.1 M pH 3.0) was “able to retain the immunoglobulin fraction of the raw serum”, the “classes of immunoglobulins retained (WB analysis of the retained material)” value ([1]; raw human serum, Western blotting on nitrocellulose) was “retained all the classes of immunoglobulins (IgG, IgE, IgM and IgA)” and the “albumin (selectivity of the column)” value ([1]; raw human serum, electrophoretic analysis) was “recovered in the unretained material”. The “albumin (selectivity of the column)” value [2] was “recovered in the unretained material” and the “immunoglobulins retained by the column” value [2] was “able to retain the IgG, IgE, IgM and IgA immunoglobulins”.

From EP1621546B1, “Peptide ligands specific to immonoglobulins” (Tecnogen S.p.A., priority 2004, dated 2008)
